This is an account of results in patent US9193720B2, “Pyridin-3-yl acetic acid derivatives as inhibitors of human immunodeficiency virus replication” (priority 2014, dated 2015).

The subject of this assay is NL-RLuc virus. Briefly: Inhibition of HIV Replication (NL-RLuc luciferase reporter virus in MT-2 cells). It counts as cell-based. Conditions: Human immunodeficiency virus 1, MT2, 120 h. The text has this: Inhibition of HIV Replication:
A recombinant NL-RLuc proviral clone was constructed in which a section of the nef gene from NL4-3 was replaced with the Renilla Luciferase gene. This virus is fully infectious and can undergo multiple cycles of replication in cell culture. In addition, the luciferous reporter provides a simple and easy method for quantitating the extent of virus growth and consequently, the antiviral activity of test compounds. The plasmid pNLRLuc contains the proviral NL-Rluc DNA cloned into pUC18 at the PvuII site. The NL-RLuc virus was prepared by transfection of 293T cells with the plasmid pNLRLuc. Transfections were performed using the LipofectAMINE PLUS kit from Invitrogen (Carlsbad, Calif.) according to the manufacturer and the virus generated was titered in MT-2 cells. For susceptibility analyses, the titrated virus was used to infect MT-2 cells in the presence of compound, and after 5 days of incubation, cells were processed and quantitated for virus growth by the amount of expressed luciferase. Assay media was RPMI 1640 supplemented with 10% heat inactivated fetal bovine serum (FBS), 100 units/ml penicillin G/100 units/ml streptomycin, 10 mM HEPES buffer pH 7.55 and 2 mM L-glutamine. The results from at least 2 experiments were used to calculate the EC50 values. Luciferase was quantitated using the Dual Luciferase kit from Promega (Madison, Wis.). Susceptibility of viruses to compounds was determined by incubation in the presence of serial dilutions of the compound. The 50% effective concentration (EC50) was calculated by using the exponential form of the median effect equation where (Fa)=1/[1+(ED50/drug conc.)^m] (Johnson V A, Byington R T. Infectivity Assay. In Techniques in HIV Research. ed. Aldovini A, Walker B D. 71-76. New York: Stockton Press. 1990).
(A reporter such as luciferase makes a cellular process visible.)
Usually EC50 stands for the concentration that produces a half-maximal response. In the case of `Cc1nc(C)c([C@H](OC(C)(C)C)C(=O)O)c(N2CCC(C)(C)CC2)c1-c1ccc(OCCc2cc(F)c(F)cc2F)cc1` [Example 50, (S)-2-(tert-butoxy)-2-(4-(4,4-dimethylpiperidin-1-yl)-2,6-dimethyl-5-(4-(2,4,5-trifluorophenethoxy)phenyl)pyridin-3-yl)acetic acid], the midpoint of the response, the EC50, lay at 3 nM.
Under `Cc1nc(C)c([C@H](OC(C)(C)C)C(=O)O)c(N2CCC(C)(C)CC2)c1-c1ccc(OCCc2c(F)c(F)cc(F)c2F)cc1` [Example 51, (S)-2-(tert-butoxy)-2-(4-(4,4-dimethylpiperidin-1-yl)-2,6-dimethyl-5-(4-(2,3,5,6-tetrafluorophenethoxy)phenyl)pyridin-3-yl)acetic acid] stands 6 nM; under `Cc1ccc(CCOc2ccc(-c3c(C)nc(C)c([C@H](OC(C)(C)C)C(=O)O)c3N3CCC(C)(C)CC3)cc2)s1` [Example 52, (S)-2-(tert-butoxy)-2-(4-(4,4-dimethylpiperidin-1-yl)-2,6-dimethyl-5-(4-(2-(5-methylthiophen-2-yl)ethoxy)phenyl)pyridin-3-yl)acetic acid], 5 nM.
As for `Cc1noc(C)c1CCOc1ccc(-c2c(C)nc(C)c([C@H](OC(C)(C)C)C(=O)O)c2N2CCC(C)(C)CC2)cc1` [Example 53, (S)-2-(tert-butoxy)-2-(5-(4-(2-(3,5-dimethylisoxazol-4-yl)ethoxy)phenyl)-4-(4,4-dimethylpiperidin-1-yl)-2,6-dimethylpyridin-3-yl)acetic acid], the EC50 was 2 nM.
With `Cc1n[nH]c(C)c1CCOc1ccc(-c2c(C)nc(C)c([C@H](OC(C)(C)C)C(=O)O)c2N2CCC(C)(C)CC2)cc1` [Example 54, (S)-2-(tert-butoxy)-2-(5-(4-(2-(3,5-dimethyl-1H-pyrazol-4-yl)ethoxy)phenyl)-4-(4,4-dimethylpiperidin-1-yl)-2,6-dimethylpyridin-3-yl)acetic acid], the response was half-maximal at 8 nM (EC50).
Take `Cc1ccc(-c2c(C)nc(C)c([C@H](OC(C)(C)C)C(=O)O)c2N2CCC(C)(C)CC2)cc1OCc1ccccc1` [Example 55, (S)-2-(5-(3-(benzyloxy)-4-methylphenyl)-4-(4,4-dimethylpiperidin-1-yl)-2,6-dimethylpyridin-3-yl)-2-(tert-butoxy)acetic acid]: the EC50 came to 93 nM.
Under `Cc1nc(C)c([C@H](OC(C)(C)C)C(=O)O)c(N2CCC(C)(C)CC2)c1-c1ccc(OCc2ccncc2)cc1` [Example 56, (S)-2-(tert-butoxy)-2-(4-(4,4-dimethylpiperidin-1-yl)-2,6-dimethyl-5-(4-(pyridin-4-ylmethoxy)phenyl)pyridin-3-yl)acetic acid] stands 2 nM; under `COc1ncc(-c2c(C)nc(C)c([C@H](OC(C)(C)C)C(=O)O)c2N2CCC(C)(C)CC2)cn1` [Example 57, (S)-2-(tert-butoxy)-2-(4-(4,4-dimethylpiperidin-1-yl)-5-(2-methoxypyrimidin-5-yl)-2,6-dimethylpyridin-3-yl)acetic acid], 217 nM; under `Cc1nc(C)c([C@H](OC(C)(C)C)C(=O)O)c(N2CCC(C)(C)CC2)c1-c1cnc(OCCc2ccc(F)cc2)nc1` [Example 58, (S)-2-(tert-butoxy)-2-(4-(4,4-dimethylpiperidin-1-yl)-5-(2-(4-fluoro-phenethoxy)pyrimidin-5-yl)-2,6-dimethylpyridin-3-yl)acetic acid], 9 nM.
Under `CCCOc1ccc(-c2c(C)nc(C)c([C@H](OC(C)(C)C)C(=O)O)c2N2CCC(C)(C)CC2)cc1F` [Example 59, (S)-2-(tert-butoxy)-2-(4-(4,4-dimethylpiperidin-1-yl)-5-(3-fluoro-4-propoxyphenyl)-2,6-dimethylpyridin-3-yl)acetic acid] stands 21 nM.
For `COc1cc(-c2c(C)nc(C)c([C@H](OC(C)(C)C)C(=O)O)c2N2CCC(C)(C)CC2)cc(OC)c1OC` [Example 60, (S)-2-(tert-butoxy)-2-(4-(4,4-dimethylpiperidin-1-yl)-2,6-dimethyl-5-(3,4,5-trimethoxyphenyl)pyridin-3-yl)acetic acid] the value was 262 nM.
Take `COc1cc(-c2c(C)nc(C)c([C@H](OC(C)(C)C)C(=O)O)c2N2CCC(C)(C)CC2)ccc1C` [Example 61, (S)-2-(tert-butoxy)-2-(4-(4,4-dimethylpiperidin-1-yl)-5-(3-methoxy-4-methylphenyl)-2,6-dimethylpyridin-3-yl)acetic acid]: a half-maximal response (EC50) required 44 nM. Compared with the last molecule, the EC50 is about 6-fold lower.
As for `COc1cccc(-c2c(C)nc(C)c([C@H](OC(C)(C)C)C(=O)O)c2N2CCC(C)(C)CC2)c1` [Example 62, (S)-2-(tert-butoxy)-2-(4-(4,4-dimethylpiperidin-1-yl)-5-(3-methoxyphenyl)-2,6-dimethylpyridin-3-yl)acetic acid], the midpoint of the response, the EC50, lay at 166 nM.
The molecule `Cc1nc(C)c([C@H](OC(C)(C)C)C(=O)O)c(N2CCC(C)(C)CC2)c1-c1ccc(OC(C)C)c(Cl)c1` [Example 63, (S)-2-(tert-butoxy)-2-(5-(3-chloro-4-isopropoxyphenyl)-4-(4,4-dimethylpiperidin-1-yl)-2,6-dimethylpyridin-3-yl)acetic acid] came in with an EC50 of 119 nM.
For `CCCOc1c(C)cc(-c2c(C)nc(C)c([C@H](OC(C)(C)C)C(=O)O)c2N2CCC(C)(C)CC2)cc1C` [Example 64, (S)-2-(tert-butoxy)-2-(5-(3,5-dimethyl-4-propoxyphenyl)-4-(4,4-dimethylpiperidin-1-yl)-2,6-dimethylpyridin-3-yl)acetic acid] the value was 26 nM; for `CCOc1ccc(-c2c(C)nc(C)c([C@H](OC(C)(C)C)C(=O)O)c2N2CCC(C)(C)CC2)cc1F` [Example 65, (S)-2-(tert-butoxy)-2-(4-(4,4-dimethylpiperidin-1-yl)-5-(4-ethoxy-3-fluorophenyl)-2,6-dimethylpyridin-3-yl)acetic acid], 44 nM; for `COc1cc(-c2c(C)nc(C)c([C@H](OC(C)(C)C)C(=O)O)c2N2CCC(C)(C)CC2)ccc1F` [Example 66, (S)-2-(tert-butoxy)-2-(4-(4,4-dimethylpiperidin-1-yl)-5-(4-fluoro-3-methoxyphenyl)-2,6-dimethylpyridin-3-yl)acetic acid], 141 nM.
As to `Cc1nc(C)c([C@H](OC(C)(C)C)C(=O)O)c(N2CCC(C)(C)CC2)c1-c1ccc(OCCc2ccc(F)cc2)nc1` [Example 67, (S)-2-(tert-butoxy)-2-(4-(4,4-dimethylpiperidin-1-yl)-6′-(4-fluorophenethoxy)-2,6-dimethyl-[3,3′-bipyridin]-5-yl)acetic acid], the EC50 was determined as 7 nM.
As for `Cc1nc(C)c([C@H](OC(C)(C)C)C(=O)O)c(N2CCC(C3CC3)C2)c1-c1ccc(OCCc2ccc(F)cc2)cc1` (stereo partly drawn) [Example 68, (2S)-2-(tert-butoxy)-2-(4-(3-cyclopropylpyrrolidin-1-yl)-5-(4-(4-fluorophenethoxy)phenyl)-2,6-dimethylpyridin-3-yl)acetic acid], a half-maximal response (EC50) required 42 nM. Compared with the last molecule, the EC50 is about 6-fold higher.
Under `Cc1nc(C)c([C@H](OC(C)(C)C)C(=O)O)c(N2CC(F)(F)C2)c1-c1ccc(OCCc2ccc(F)cc2)cc1` [Example 69, (S)-2-(tert-butoxy)-2-(4-(3,3-difluoroazetidin-1-yl)-5-(4-(4-fluorophenethoxy)phenyl)-2,6-dimethylpyridin-3-yl)acetic acid] stands 1990 nM; under `Cc1nc(C)c([C@H](OC(C)(C)C)C(=O)O)c(N2CC(C)(C)C2)c1-c1ccc(OCCc2ccc(F)cc2)cc1` [Example 70, (S)-2-(tert-butoxy)-2-(4-(3,3-dimethylazetidin-1-yl)-5-(4-(4-fluorophenethoxy)phenyl)-2,6-dimethylpyridin-3-yl)acetic acid], 3050 nM.
`Cc1nc(C)c([C@H](OC(C)(C)C)C(=O)O)c(N2CC(C(C)C)C2)c1-c1ccc(OCCc2ccc(F)cc2)cc1` [Example 71, (S)-2-(tert-butoxy)-2-(5-(4-(4-fluoro-phenethoxy)phenyl)-4-(3-isopropylazetidin-1-yl)-2,6-dimethylpyridin-3-yl)acetic acid] came in with an EC50 of 3190 nM.
For `Cc1nc(C)c([C@H](OC(C)(C)C)C(=O)O)c(N2CCC(c3ccccc3)CC2)c1-c1ccc(OCCc2ccc(F)cc2)cc1` [Example 72, (S)-2-(tert-butoxy)-2-(5-(4-(4-fluorophenethoxy)phenyl)-2,6-dimethyl-4-(4-phenylpiperidin-1-yl)pyridin-3-yl)acetic acid] the value was 744 nM; for `Cc1nc(C)c([C@H](OC(C)(C)C)C(=O)O)c(N2CCC(c3nc(C(C)C)no3)CC2)c1-c1ccc(OCCc2ccc(F)cc2)cc1` [Example 73, (S)-2-(tert-butoxy)-2-(5-(4-(4-fluorophenethoxy)phenyl)-4-(4-(3-isopropyl-1,2,4-oxadiazol-5-yl)piperidin-1-yl)-2,6-dimethylpyridin-3-yl)acetic acid], 1030 nM.
Under `Cc1nc(C)c([C@H](OC(C)(C)C)C(=O)O)c(N2CCC(C(F)(F)F)CC2)c1-c1ccc(OCCc2ccc(F)cc2)cc1` [Example 74, (S)-2-(tert-butoxy)-2-(5-(4-(4-fluorophenethoxy)phenyl)-2,6-dimethyl-4-(4-(trifluoromethyl)piperidin-1-yl)pyridin-3-yl)acetic acid] stands 379 nM.
